We go through four compounds from paper PMC4492750, “The discovery of a selective and potent A2a agonist with extended lung retention” (Pharmacology Research & Perspectives, 2015).

Series [1] relates to LPS-induced TNFα production in rat splenocytes. Description: LPS-induced TNFα production in rat mononuclear spleen cells (rTNFα splenocytes). Conditions: Splenocyte, LPS-stimulated TNFα release, rat splenocytes, average (SD); for Emax: read-out: rTNFα splenocytes Intrinsic activity. It is filed as cell-based. How it is done:
(§1) • Human A2a and A2b receptor pharmacology: Chinese hamster ovary CHO-K1 cells stably expressing human A2a and A2b receptors were used to determine substances agonistic potency and intrinsic activity. […] The signal corresponding to adenosine at 100 μmol/L was used to define 100% intrinsic activity. • Human A3 receptor pharmacology: A3 receptor Gi coupling was measured by GTPγ ^35[S] filter assay at serial dilutions of compound using membranes from Perkin-Elmer. The signal corresponding to the maximal response of NECA at 100 μmol/L was set to 100% intrinsic activity. • Lipopolysaccharide (LPS)-induced TNFα production in primary human peripheral blood mononuclear cells (hTNFα PBMC) and rat mononuclears (rTNFα splenocytes): Human PBMC and rat mononuclear spleen cells were incubated with serial dilutions of compound and stimulated with LPS.
Procedures and assays were run in R10 buffer (RPMI 1640 Medium supplemented with GlutaMAX™ and HEPES (GIBCO-BRL), 10% fetal calf serum, penicillin and streptomycin (each 5000IU/ml)). Human PBMC were purified from heparinised blood by Ficoll separation (Ficoll, Amersham Pharmacia Biotech AB, Cat: 17-1440-03, Lot: 312170) and rat mononuclear cells were collected after rat spleen perfusion. Both cell preparations were followed by hypotonic lysis of residual erythrocytes. Serial dilutions of compounds were pre-incubated with 200 000 cells/well (96-well plate) for 45min in 37 °C (190µl). Cells were stimulated by 10µl LPS (final concentration 0.5ng/ml human and 150ng/ml rat; SIGMA Cat: L-4516, Lot: 104K4036) for 18h at 37 °C. TNFα release was measured by ELISA (^TmR&D Systems plates) according to the manufacturer’s instructions in cell free supernatant.

The next series concerns the target A2a (Homo sapiens, UniProt P29274). As to the kind of experiment: Human A2a receptor pharmacology: cAMP Alphascreen in CHO-K1 cells. Type of series: cell-based. On the set-up: expressed in transfected cells; host or cells: CHO-K1. Conditions: average (SD); for Emax: CHO-K1, 100% = 10 μmol/L NECA, read-out: A2a human CHO-K1 cells Intrinsic activity; for EC50: cAMP generation. The protocol: as §1
Chinese hamster ovary CHO-K1 cells stably expressing human A2a and A2b receptors were stored as 1ml aliquots at -150 °C in freezing medium, thawed immediately prior to assay. […] Cells (10000 cells/well) were incubated with test compounds prepared as serial dilutions. Potency (EC50) and efficacy (% of maximal response) were calculated from data fitted to a 4-parameter logistic function. The signal of 10µM NECA represented the maximal cAMP response (i.e. 100% of efficacy) produced by these cells.

Series [2] in a line: Substance solubility in phosphate buffer. Conditions: aqueous buffer, thermodynamic from solid; phosphate buffer pH 7.4, dry compound in solid state. Type of series: physicochemical. How it is done:
as §1
Solubility was measured in phosphate buffer at pH 7.4 using dry compounds in solid state.

The nature of series [3]: Lipophilicity (LogD), shake flask. Type of series: physicochemical. Conditions: octanol-water, phosphate buffer pH 7.4; for logD at 10 min: 1-octanol / phosphate buffer. How it is done:
as §1
The octanol-water partition coefficient (LogD) was measured using the shake flask method. 600µL of 1-octanol was added to a vial with 6µL of 10mM DMSO-solution of the test compound. 600µL of 10mM sodium phosphate buffer adjusted to pH 7.4 was added and equilibrium was performed by vigorous shaking for ten minutes with an Eppendorf mixer. The phases were separated by centrifugation. The samples were analysed by HPLC with UV-detection at 254nm.

The nature of series [4]: In vivo pharmacokinetics in rats (i.v., oral, intratracheal). Conditions: for Rat blood clearance: i.v.; for half-life: lung, inhaled or intranasal, intratracheal dosing, n = 2/time point, read-out: Lung t½ (terminal half-life in lung) (converted); for Kp at 24 h: other: intratracheal (i.t.), i.t., ratio of lung concentration 24 h after dose to blood Cmax after same dose, read-out: Lung/blood split. The protocol: Rat PK was determined after an i.v. dose of 0.1μmol/kg (approximately 50μg/kg, 1ml/kg, TEG:H2O 50:50) given via a catheter in vena jugularis. The PK after oral administration was performed at a dose of 6μmol/kg (approximately 3mg/kg, 4ml/kg, 0.5% HPMC) given by gavage. Intratracheal PK was determined at 0.03 to 0.6μmol/kg (17 to 300μg/kg, 1ml/kg, in a vehicle containing sodium chloride (8.5mg/ml), EDTA (0.1mg/ml), citric acid (0.15mg/ml), sodium citrate (0.5mg/ml) and polysorbate 80 (0.2mg/mL) in purified water). The i.t. dose was given to anaesthetized (isofluran) rats, positioned at approximately 30° angle (head up) and the compound was administered in the trachea using a modified metal cannula. Rats were put back in their cages while regaining consciousness. Serial blood sampling of 100 to 200µl was performed after i.v. and p.o. dosing at pre-defined timepoints. Blood was mixed 1:4 with purified water containing heparin (10 to 30U/ml) in order to haemolyse the blood cells, and then placed in a 96-well plate and stored at –70°C until analysed. The dilution factor was accounted for in the data analysis. After i.t. dosing, animals were euthanized with isoflurane or pentobarbital at defined timepoints after dosing, blood samples taken from the vena jugularis or arteria carotis, handled and stored as described above. The rats were bled to drain as much blood as possible from the lungs. The lungs including the trachea were carefully dissected out with all non-relevant tissue removed, placed in pre-weighed vials and weighed. The lung vials were stored at –70°C until analyzed.
Lung tissue was frozen in liquid nitrogen and homogenised using a CryoPrep pneumatic hammer. The homogenisation of the tissue and the extraction of the compound were done in 4ml Ringer solution with an Adaptive Focused Acoustic Instrument. 50µl of the supernatant was transferred to a 96-well plate. All lung, blood and plasma samples were analysed by LC-MS/MS using a selective and sensitive method. Peak areas were used in comparison to those produced by the standard curve to determine parent compound concentrations. Homogenate concentrations were adjusted to account for the sample dilutions to give tissue concentrations.

A short description of series [5]: Plasma protein binding by equilibrium dialysis. Type of series: in vitro ADME. Conditions: male, Wistar, pH 7.4, rat plasma, 10 μmol/L, read-out: fu rat (free unbound drug in plasma). The protocol: as §1
The plasma protein binding was determined in plasma from male Wistar rats at a compound concentration of 10μM by equilibrium dialysis against a phosphate buffer at pH 7.4 using a semi-permeable membrane with a molecular cut-off of 6-8KDa (Spectra/Por, Spectrum Laboratories Inc, US). The compounds were dialyzed for 18h at 37±1°C in an air incubator on an orbital shaker. The samples were analysed using LC-MS/MS.

On the set-up of series [6]: method as in Mantell et al. [2009], [2010]. Conditions: over the dose range tested; ref Mantell et al. [2009], [2010]; cited from earlier work.
The next series concerns patients with COPD. Details: method as in Mantell et al. [2009], [2010]. Conditions: ref Mantell et al. [2009], [2010]; cited from earlier work.
Details of series [7]: method as in Mantell et al. [2010]. Conditions: ref Mantell et al. [2010]; cited from earlier work.
Series [8] deals with LPS-induced BAL neutrophils. Description: LPS-induced lung inflammation model, neutrophils in BAL fluid. It is filed as in vivo, rat. Conditions: data not shown. The protocol: The efficacy of the compound on neutrophils in BAL fluid is expressed as per cent inhibition of the full window (negative veh/veh controls vs. the positive veh/LPS controls): Inhibition (%) of LPS-induced BAL neutrophils by compound 2 was calculated using the following formula: [drawing 1] where A is the average in the group administered with vehicle and challenged with LPS; B is the average in the group administered with vehicle and challenged with saline; and C is the average in the group administered with test compound and challenged with LPS.
Animals in all efficacy studies were dosed intratracheally as described above in a buffered saline vehicle (pH 5) containing sodium chloride (8.5mg/ml), citric acid (0.28mg/ml) and sodium citrate (0.5mg/ml). The compound was dissolved in saline when given intravenously (0.9% NaCl) to the swivelled rats.
[…] Each rat was given LPS from the Pseudomona Aeruginosa bacteria (1µg/rat, 5µg/ml saline, Sigma-Aldrich, Sweden).
24 hours after the LPS challenge, rats were anaesthetized and exsanguinated via a cardiac incision. A tube was inserted and ligated to the trachea. The tube was connected to a syringe with 4ml PBS (without Ca^2+/Mg^2+) and a lavage of the whole lung was performed manually. The BAL fluid was collected individually in polyethylene tubes and kept on ice until further processed.
The BAL fluid was centrifuged and the supernatant separated from the cell pellet that was resuspended in 1.0ml of PBS. The total number of cells and cell differentia was counted in an automated cell counter and haematology analyzer (SYSMEX XT-1800iV, software for the rat BALF).

In series [9] the test system is allergen-challenged Brown Norway rats. Details: method as in Fozard et al. [2002]. Conditions: intratracheal; ref Fozard et al. [2002]; cited from earlier work.

≈ marks a conversion by molar mass, not a printed value. Read-outs that look alike come from different tables or passages of the source.

Sequence of A2a (P29274 whole entry): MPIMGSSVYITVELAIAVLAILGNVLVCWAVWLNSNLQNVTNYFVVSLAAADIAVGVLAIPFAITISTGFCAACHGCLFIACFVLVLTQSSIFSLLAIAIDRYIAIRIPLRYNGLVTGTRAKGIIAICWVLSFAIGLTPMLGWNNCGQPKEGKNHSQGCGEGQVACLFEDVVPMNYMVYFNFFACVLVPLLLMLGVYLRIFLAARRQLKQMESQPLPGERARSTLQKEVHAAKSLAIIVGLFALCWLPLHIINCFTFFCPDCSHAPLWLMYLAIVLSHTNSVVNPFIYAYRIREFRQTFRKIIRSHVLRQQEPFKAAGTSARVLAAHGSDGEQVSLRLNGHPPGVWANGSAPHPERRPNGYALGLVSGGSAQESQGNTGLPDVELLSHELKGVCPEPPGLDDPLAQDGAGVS

As for `CCNC(=O)[C@H]1O[C@@H](n2cnc3c(NC(CC)CC)nc(NCCNC(=O)Nc4ccncc4)nc32)[C@H](O)[C@@H]1O` [Compound 1, (2S,3S,4R,5R)-N-ethyl-5-[6-(1-ethylpropylamino)-2-[2-(4-pyridylcarbamoylamino)ethylamino]purin-9-yl]-3,4-dihydroxy-tetrahydrofuran-2-carboxamide], in series [1], the IC50 was 3.2 nM and the Emax was 53.4%. For the same compound, at A2a, the Emax turned out to be 102% and the half-maximal effective concentration (EC50) is 2.4 nM. For the same compound, the solubility in series [2] was over 1000 µM. The compound further had a pH-dependent lipophilicity (logD) at 10 min in series [3] of 2. This compound also gave a Rat blood clearance in series [4] (mean of n = 3) of 65 mL/min per kg. For the same compound, in [4] (rat), the half-life is 360 min and the Kp at 24 h worked out at 1.8. The bioavailability in [4] (whole blood, 6 umol/kg, rat, oral, mean of n = 3, read-out: Rat oral F (bioavailability)) is 1.4%. Besides, the fraction unbound at 18 h, 10 μM in series [5] was 0.2.

On to `CCNC(=O)[C@H]1O[C@@H](n2cnc3c(NCC(c4ccccc4)c4ccccc4)nc(C(=O)NCCNC(=O)NC4CCN(c5ccccn5)CC4)nc32)[C@H](O)[C@@H]1O` [UK-432,097, 6-(2,2-diphenylethylamino)-9-[(2R,3R,4S,5S)-5-(ethylcarba-moyl)-3,4-dihydroxy-tetrahydrofuran-2-yl]-N-[2-[[1-(2-pyridyl)-4-piperidyl]carbamoylamino]ethyl]purine-2-carboxamide, reference compound], for which, in series [6], the “Safety in Phase I clinical study” value is recorded as “no safety limitation”. Also, in series [1], the IC50 amounted to 2.6 nM and the Emax was found to be 60.9%. The “Efficacy in Phase II study” value in the series with patients with COPD was “failed to show efficacy”. Moreover, the solubility in [2] is 12 µM (≈ 9.33 µg/mL). In addition, the LogD in series [3] is given as 3.4. In [4] (mean of n = 3), the Rat blood clearance is listed as 37 mL/min per kg. Also, in series [4] (rat), the half-life is 240 min and the Kp at 24 h turned out to be 2.7. The “Percentage of dose remaining in lung at 6 h” value in series [4] (rat, i.t. dose 130 μg/kg, 6 h) is given as “approximately 3%”. Also, the fraction unbound at 18 h, 10 μM in series [5] was 0.014. Further, in [7], the Clearance entry is on record as “rapid”, the Oral bioavailability entry is “low”, the Plasma protein binding entry is reported as “high” and the solubility result is on record as “low”.

In the case of `CCNC(=O)[C@H]1O[C@@H](n2cnc3c(NCC(c4ccccc4)c4ccccc4)nc(NCCNC(=O)Nc4cc[n+](C)cc4)nc32)[C@H](O)[C@@H]1O` [Compound 3, (2S,3S,4R,5R)-5-[6-(2,2-diphenylethylamino)-2-[2-[(1-methylpyridin-1-ium-4-yl)carbamoylamino]ethylamino]purin-9-yl]-N-ethyl-3,4-dihydroxy-tetrahydrofuran-2-carboxamide], in [1], the half-inhibitory concentration (IC50) worked out at 0.2 nM and the Emax stood at 58%. For the same compound, at A2a, the Emax worked out at 96.2% and it took 0.4 nM to reach a half-maximal effect (EC50). Also, the solubility in series [2] was 420 µM. The log distribution coefficient (logD) at 10 min in series [3] was -0.35. In series [4] (mean of n = 3), this compound gave a Rat blood clearance of 42 mL/min per kg. Besides, in [4] (rat), the half-life is 4800 min and the Kp at 24 h turned out to be 1800. Also, the “Percentage of dose remaining in lung at 24 h” value in series [4] (rat, single i.t. dose (17 and 20 μmol/kg for compounds 2 and 3 as printed in Fig. 5), 24 h) was 52%. Moreover, the fraction unbound at 18 h, 10 μM in series [5] stood at 0.11.

With `CCNC(=O)[C@H]1O[C@@H](n2cnc3c(N)nc(NCCc4ccc(CCC(=O)O)cc4)nc32)[C@H](O)[C@@H]1O` [CGS21680, 3-[4-[2-[[6-amino-9-[(2R,3R,4S,5S)-5-(ethylcarbamoyl)-3,4-dihydroxy-tetrahydrofuran-2-yl]purin-2-yl]amino]ethyl]phenyl]propanoic acid, reference compound], the “Pretreatment time at which maximal efficacy was seen” value in [8] is listed as 30 min. Moreover, the “Effect on lung inflammation” value in series [9] is reported as “inhibited lung inflammation”. Besides, in [1], half-maximal inhibition (IC50) required 6.9 nM and the Emax amounted to 63.5%. Further, the pH-dependent lipophilicity (logD) at 10 min in [3] is under -1. In [4] (mean of n = 3), this compound returned a Rat blood clearance of 26 mL/min per kg. Also, in series [4] (rat), the half-life was 60 min and the Kp at 24 h is under 0.08. In addition, the “Percentage of dose remaining in lung at 4 h” value in series [4] (rat, single i.t. dose 300 μg/kg, 4 h) is reported as “less than 1%”. Further, the fraction unbound at 18 h, 10 μM in series [5] came to 0.17.
